Our source for the EC50 values is PMC9587021, “Construction of a bioluminescence-based assay for bitter taste receptors (TAS2Rs)” (Scientific Reports, 2022).

Structures are written as SMILES.

The target of one test is T1, TAS2R30 (Homo sapiens, UniProt P59541).
T1 sequence (P59541 1-319): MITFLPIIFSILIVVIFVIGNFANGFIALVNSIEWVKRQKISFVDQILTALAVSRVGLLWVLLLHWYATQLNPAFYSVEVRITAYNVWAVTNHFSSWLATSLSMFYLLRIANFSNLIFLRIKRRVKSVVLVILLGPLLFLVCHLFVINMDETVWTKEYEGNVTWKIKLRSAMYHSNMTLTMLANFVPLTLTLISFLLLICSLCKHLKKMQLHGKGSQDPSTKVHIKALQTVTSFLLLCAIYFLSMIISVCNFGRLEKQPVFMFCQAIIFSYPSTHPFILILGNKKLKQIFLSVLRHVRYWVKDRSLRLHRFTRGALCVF
Nature of the test: cell-based. Set-up: bioluminescence intracellular calcium release assay, mt-clytin II with coelenterazine, Gα16-gust44 co-expressed. The following applies: 293AD cells. The protocol: (§1) The bioluminescence-based assay was used to characterize the functional properties of various human TAS2Rs. For each TAS2R, one or more of its cognate agonists were tested against either the AD-293 or 293AD cell line, or both. Both cell lines were used because of their stronger adherent properties, which facilitate media changes on the day of the FLIPR assay. However, because both cell lines are generated differently, some disparities in gene expression capacities due to a myriad of factors could be reasonably expected. Consequently, some TAS2Rs may be well expressed in one cell line but not the other, and the ability of each cell line to express a particular TAS2R needs to be empirically evaluated. […] However, deviations between our experimental and published potency values for some ligands (i.e. TAS2R4: stevioside; TAS2R7: Mg^2+, Mn^2+, Zn^2+) were observed, which could be attributed to the use of a different assay format, readout and processing parameters, use of different cell lines with resultant potential differences in TAS2R expression levels, and quality and methodological differences in ligand preparations. Because potency values could be obtained that were consistent with the literature, or close to the reported minimal effective stimulatory concentration upon further testing of other TAS2R4/7 agonists, the deviation in EC50 values could be largely attributed to qualitative differences in the ligands (Supplementary Fig. S3). Calcium responses induced by the tested cognate agonists reflected specific TAS2R stimulation. […] Poor localization of TAS2Rs to the cell surface in heterologous systems was associated with diminished receptor signaling output and functionality. One of the more commonly used strategies to enhance the density of TAS2Rs at the cell surface involves fusing an N-terminal signal sequence of either the SST3, or Rho receptor to the TAS2R[24]. We adopted this approach, specifically co-expressing SST3-TAS2R with Gα16-gust44 chimera and mt-clytin II, to develop and validate a bioluminescence-based TAS2R intracellular calcium release assay. A strength of the bioluminescence-based TAS2R assay is its capacity to generate greater assay spans than that of fluorescence-based assays, which could be largely attributed to the utilization of mt-clytin II as the calcium reporter. Calcium-binding photoproteins in general are useful reporters for studying calcium-mediated signaling processes. […] Its fast calcium binding and dissociation kinetics render it a suitable indicator to report on swift, transient changes in calcium ion concentrations and study rapid receptor-ligand interactions. Mitochondrial targeting of clytin II was crucial to generating higher luminescence intensity than that of cytosol-localized clytin II, as inositol 1,4,5-triphosphate (IP3)-induced calcium release from the ER subsequent to ligand activation is thought to result in the formation of ER-proximal, calcium-rich microdomains that enabled the closely apposed mitochondria to sense a higher initial rise in calcium concentration than would be experienced by the bulk cytosol.

A further test deals with T2, TAS2R16 (Homo sapiens, UniProt Q9NYV7).
T2 sequence (Q9NYV7 1-291): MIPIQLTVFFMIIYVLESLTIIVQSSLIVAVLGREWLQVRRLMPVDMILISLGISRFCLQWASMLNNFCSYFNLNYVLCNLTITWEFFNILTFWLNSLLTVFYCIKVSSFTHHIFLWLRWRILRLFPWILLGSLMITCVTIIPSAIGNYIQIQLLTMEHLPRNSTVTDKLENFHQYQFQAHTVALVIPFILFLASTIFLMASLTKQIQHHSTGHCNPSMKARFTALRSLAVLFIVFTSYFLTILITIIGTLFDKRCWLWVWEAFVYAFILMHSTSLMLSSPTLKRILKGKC
Nature of the test: cell-based. Set-up: bioluminescence intracellular calcium release assay, mt-clytin II with coelenterazine, Gα16-gust44 co-expressed. On the procedure: as §1

The next test addresses T3, TAS2R10 (Homo sapiens, UniProt Q9NYW0).
T3 sequence (Q9NYW0 1-307): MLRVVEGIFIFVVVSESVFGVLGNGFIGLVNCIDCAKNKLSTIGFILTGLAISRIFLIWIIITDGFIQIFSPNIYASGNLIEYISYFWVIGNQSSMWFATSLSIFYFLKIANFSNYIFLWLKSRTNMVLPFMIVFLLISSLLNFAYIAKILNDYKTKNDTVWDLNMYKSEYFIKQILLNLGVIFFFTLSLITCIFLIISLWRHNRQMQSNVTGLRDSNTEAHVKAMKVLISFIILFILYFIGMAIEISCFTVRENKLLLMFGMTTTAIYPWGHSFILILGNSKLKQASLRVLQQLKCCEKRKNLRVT
Nature of the test: cell-based. Set-up: bioluminescence intracellular calcium release assay, mt-clytin II with coelenterazine, Gα16-gust44 co-expressed. On the procedure:
as §1

A further test concerns the target T4, TAS2R8 (Homo sapiens, UniProt Q9NYW2).
T4 sequence (Q9NYW2 1-309): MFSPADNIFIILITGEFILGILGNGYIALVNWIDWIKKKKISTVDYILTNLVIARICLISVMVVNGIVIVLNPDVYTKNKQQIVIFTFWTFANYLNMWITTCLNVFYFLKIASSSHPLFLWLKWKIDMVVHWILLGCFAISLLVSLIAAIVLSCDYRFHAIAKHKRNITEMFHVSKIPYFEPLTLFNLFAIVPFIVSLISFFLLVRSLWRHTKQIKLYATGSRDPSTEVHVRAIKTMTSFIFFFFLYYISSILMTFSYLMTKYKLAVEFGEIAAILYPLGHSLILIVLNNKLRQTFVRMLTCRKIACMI
Nature of the test: cell-based. The arrangement: bioluminescence intracellular calcium release assay, mt-clytin II with coelenterazine, Gα16-gust44 co-expressed. On the procedure:
as §1

In another test the target is T5, TAS2R20 (Homo sapiens, UniProt P59543).
T5 sequence (P59543 1-309): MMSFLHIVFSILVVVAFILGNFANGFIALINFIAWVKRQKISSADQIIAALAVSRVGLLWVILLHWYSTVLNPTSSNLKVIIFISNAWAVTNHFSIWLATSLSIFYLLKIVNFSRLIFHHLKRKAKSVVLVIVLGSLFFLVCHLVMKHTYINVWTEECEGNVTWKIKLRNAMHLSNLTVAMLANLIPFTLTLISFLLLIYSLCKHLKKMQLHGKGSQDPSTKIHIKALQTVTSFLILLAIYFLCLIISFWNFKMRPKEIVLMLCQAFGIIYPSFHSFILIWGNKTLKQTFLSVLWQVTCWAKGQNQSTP
The test can be described thus: cell-based. The arrangement: bioluminescence intracellular calcium release assay, mt-clytin II with coelenterazine, Gα16-gust44 co-expressed. On the procedure:
as §1

The next test has as its target T6, TAS2R13 (Homo sapiens, UniProt Q9NYV9).
T6 sequence (Q9NYV9 1-303): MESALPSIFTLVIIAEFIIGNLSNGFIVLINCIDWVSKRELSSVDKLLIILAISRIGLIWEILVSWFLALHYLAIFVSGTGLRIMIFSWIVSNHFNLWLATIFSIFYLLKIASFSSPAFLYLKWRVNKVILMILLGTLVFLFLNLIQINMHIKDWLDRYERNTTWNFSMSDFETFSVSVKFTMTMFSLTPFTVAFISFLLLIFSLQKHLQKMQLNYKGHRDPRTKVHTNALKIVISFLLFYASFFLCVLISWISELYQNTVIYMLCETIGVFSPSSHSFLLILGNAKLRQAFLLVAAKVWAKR
The test can be described thus: cell-based. The arrangement: bioluminescence intracellular calcium release assay, mt-clytin II with coelenterazine, Gα16-gust44 co-expressed. Conditions: 293AD cells. The protocol:
as §1

A further test has as its target T7, TAS2R14 (Homo sapiens, UniProt Q9NYV8).
T7 sequence (Q9NYV8 1-317): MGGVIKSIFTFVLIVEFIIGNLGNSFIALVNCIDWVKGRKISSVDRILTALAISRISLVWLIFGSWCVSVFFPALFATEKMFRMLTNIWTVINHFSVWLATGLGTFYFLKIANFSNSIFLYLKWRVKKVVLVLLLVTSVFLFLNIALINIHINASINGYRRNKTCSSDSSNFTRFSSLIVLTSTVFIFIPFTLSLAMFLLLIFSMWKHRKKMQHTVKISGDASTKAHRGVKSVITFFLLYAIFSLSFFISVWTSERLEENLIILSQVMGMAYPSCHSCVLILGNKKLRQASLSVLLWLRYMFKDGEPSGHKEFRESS
The test can be described thus: cell-based. The arrangement: species or system 293AD; bioluminescence intracellular calcium release assay, mt-clytin II with coelenterazine, Gα16-gust44 co-expressed.

The target of a further test is T8, TAS2R9 (Homo sapiens, UniProt Q9NYW1).
T8 sequence (Q9NYW1 1-312): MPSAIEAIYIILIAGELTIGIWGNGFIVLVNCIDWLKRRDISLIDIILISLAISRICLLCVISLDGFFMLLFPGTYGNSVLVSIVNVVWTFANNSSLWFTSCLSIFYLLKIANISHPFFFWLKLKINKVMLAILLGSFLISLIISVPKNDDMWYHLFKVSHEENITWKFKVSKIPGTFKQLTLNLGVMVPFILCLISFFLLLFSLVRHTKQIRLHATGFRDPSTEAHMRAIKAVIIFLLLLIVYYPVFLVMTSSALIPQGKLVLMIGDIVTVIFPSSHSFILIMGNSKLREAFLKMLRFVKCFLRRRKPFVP
Nature of the test: cell-based. The arrangement: bioluminescence intracellular calcium release assay, mt-clytin II with coelenterazine, Gα16-gust44 co-expressed. The following applies: 293AD cells. The protocol: as §1

A further test deals with T9, TAS2R43 (Homo sapiens, UniProt P59537).
T9 construct: AD-293 cells; co-expressed Galpha16-gust44 chimera and mt-clytin II reporter (type 2 multigene vector)
T9 sequence (P59537 2-309): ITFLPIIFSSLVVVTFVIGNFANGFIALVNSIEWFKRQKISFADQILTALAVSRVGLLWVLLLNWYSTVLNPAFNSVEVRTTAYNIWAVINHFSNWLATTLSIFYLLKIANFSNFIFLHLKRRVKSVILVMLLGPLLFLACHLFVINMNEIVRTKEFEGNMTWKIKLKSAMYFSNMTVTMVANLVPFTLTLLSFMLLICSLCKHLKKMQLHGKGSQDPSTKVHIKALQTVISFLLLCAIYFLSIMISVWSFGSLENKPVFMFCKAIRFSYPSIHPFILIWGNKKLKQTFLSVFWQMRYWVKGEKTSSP
The test can be described thus: bioluminescence (mt-clytin II) intracellular calcium release. The format is cell-based. An excerpt:
bioluminescence (mt-clytin II) intracellular calcium release on TAS2R43 | TAS2R43, both aristolochic acid and aloin could be considered full agonists | indicating the partial agonist activity of caffeine towards TAS2R43
Background: A change in cytosolic calcium serves as a functional read-out for many receptors and channels.

Protocol for TAS2R14: The bioluminescence-based assay was used to characterize the functional properties of various human TAS2Rs. For each TAS2R, one or more of its cognate agonists were tested against either the AD-293 or 293AD cell line, or both. […] We adopted this approach, specifically co-expressing SST3-TAS2R with Gα16-gust44 chimera and mt-clytin II, to develop and validate a bioluminescence-based TAS2R intracellular calcium release assay.

Consider `C=C[C@H]1[C@H](O[C@@H]2O[C@H](CO)[C@@H](O)[C@H](O)[C@H]2OC(=O)c2c(O)cc(O)cc2-c2cccc(O)c2)OC=C2C(=O)OCC[C@H]21` [Amarogentin], for which the EC50 on TAS2R30 was 3 ± 1 µM.

In the case of `OC[C@H]1O[C@@H](Oc2ccc(O)cc2)[C@H](O)[C@@H](O)[C@@H]1O` [Arbutin], the EC50 on TAS2R16 (AD-293 cells) was 5000 ± 1200 µM.

With `COc1cc2c(cc1OC)[C@@]13CCN4CC5=CCO[C@H]6CC(=O)N2[C@H]1[C@H]6[C@H]5C[C@H]43` [Brucine], the EC50 on TAS2R10 (293AD cells) was found to be 21 ± 6.5 µM; on TAS2R10 (AD-293 cells), 42 ± 3 µM.

On to `O=C(N[C@H](CO)[C@H](O)c1ccc([N+](=O)[O-])cc1)C(Cl)Cl` [Chloramphenicol], for which the EC50 amounted to 18 ± 2.7 µM at TAS2R8 (293AD cells) and 70 ± 12 µM on TAS2R8 (AD-293 cells).

On to `O=C(O)c1cc(=O)c2c(OCC(O)COc3cccc4oc(C(=O)O)cc(=O)c34)cccc2o1` [Cromolyn], for which the results for the EC50 on TAS2R20 (293AD cells) and at TAS2R20 (AD-293 cells) were 35 ± 7 µM and 73 ± 26 µM, respectively.

With `CC[N+](CC)(CC(=O)Nc1c(C)cccc1C)Cc1ccccc1` [Denatonium benzoate], on TAS2R8 (AD-293 cells), the EC50 was 1000 ± 100 µM.

Regarding `O=Cc1ccccc1O[C@@H]1O[C@H](CO)[C@@H](O)[C@H](O)[C@H]1O` [Helicin], the EC50 on TAS2R16 (AD-293 cells) was found to be 3000 ± 200 µM.

Regarding `CC[N+](C)(CC)CCOC(=O)C(O)(c1ccccc1)C1CCCCC1` (stereo not drawn) [Oxyphenonium], on TAS2R13, the EC50 amounted to 161 ± 16 µM.

Turning to `C=C(C)[C@@H]1[C@H]2OC(=O)[C@@H]1[C@]1(O)C[C@H]3O[C@]34C(=O)O[C@H]2[C@]14C` [Picrotoxinin], at TAS2R14, the EC50 was found to be 54 ± 8.4 µM.

On to `CN1CCN(CC(=O)N2c3ccccc3C(=O)Nc3cccnc32)CC1` [Pirenzepine], for which, on TAS2R9, the EC50 came to 4000 ± 400 µM.

As for `OCc1ccccc1O[C@@H]1O[C@H](CO)[C@@H](O)[C@H](O)[C@H]1O` [Salicin], the EC50 came out at 400 ± 200 µM at TAS2R16 (293AD cells) and 2000 ± 600 µM on TAS2R16 (AD-293 cells).

`O=C1c2c(O)cccc2C([C@@H]2O[C@H](CO)[C@@H](O)[C@H](O)[C@H]2O)c2cc(CO)cc(O)c21` (stereo partly drawn) [aloin]: at TAS2R43, the concentration for a half-maximal effect (EC50) worked out at 5 ± 3 µM.

In the case of `COc1cccc2c1cc([N+](=O)[O-])c1c(C(=O)O)cc3c(c12)OCO3` [aristolochic acid], the EC50 at TAS2R43 was 0.026 ± 0.003 µM.

In the case of `Cn1c(=O)c2c(ncn2C)n(C)c1=O` [caffeine], at TAS2R43, the EC50 came out at 390 ± 120 µM.

One may read the EC50 as the concentration that produces a half-maximal response.
